Source: article PMC4297448, “Detection of distinct glycosylation patterns on human γ-glutamyl transpeptidase 1 using antibody-lectin sandwich array (ALSA) technology” (BMC Biotechnology, 2014)

These compounds were tested against T1, microvirin (MVN) (Microcystis aeruginosa, UniProt Q2MDE2) (assay: CFG glycan microarray V5.[…], fluorescence). Details: biotinylated MVN 200 μg/mL, Alexa Fluor 488-avidin; glycan immobilised via spacer.
T1 construct: full-length, N-terminal hexahistidine tag (pET-15b), E. coli BL21(DE3), Ni-NTA purified, biotinylated with NHS-SS-biotin
T1 sequence (Q2MDE2 1-108): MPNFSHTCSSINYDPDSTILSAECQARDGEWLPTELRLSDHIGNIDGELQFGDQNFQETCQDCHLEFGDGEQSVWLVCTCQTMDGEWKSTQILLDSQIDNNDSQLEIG
Type: binding
“Manα1-2Manα1-2Manα1-3Manα-Sp9 [compound 208]” was tested, and the “Fluorescence (%) ^a” value was 63.8%. CC(=O)N[C@@H]1[C@@H](O)[C@H](O[C@@H]2O[C@H](CO)[C@@H](O[C@@H]3O[C@H](CO[C@H]4O[C@H](CO[C@H]5O[C@H](CO)[C@@H](O)[C@H](O)[C@@H]5O)[C@@H](O)[C@H](O[C@H]5O[C@H](CO)[C@@H](O)[C@H](O)[C@@H]5O[C@H]5O[C@H](CO)[C@@H](O)[C@H](O)[C@@H]5O)[C@@H]4O)[C@@H](O)[C@H](O[C@H]4O[C@H](CO)[C@@H](O)[C@H](O)[C@@H]4O[C@H]4O[C@H](CO)[C@@H](O)[C@H](O)[C@@H]4O)[C@@H]3O)[C@H](O)[C@H]2NC(C)=O)[C@@H](CO)O[C@H]1NC(=O)C[C@H](N)C(=O)O [compound 211, Manα1-6(Manα1-2Manα1-3)Manα1-6(Manα1-2Manα1-3)Manβ1-4GlcNAcβ1-4GlcNAcβ-Sp12] was tested, and the “Fluorescence (%) ^a” value was 31.7%. For CC(=O)N[C@@H]1[C@@H](O)[C@H](O[C@@H]2O[C@H](CO)[C@@H](O[C@@H]3O[C@H](CO[C@H]4O[C@H](CO[C@H]5O[C@H](CO)[C@@H](O)[C@H](O)[C@@H]5O[C@H]5O[C@H](CO)[C@@H](O)[C@H](O)[C@@H]5O)[C@@H](O)[C@H](O[C@H]5O[C@H](CO)[C@@H](O)[C@H](O)[C@@H]5O)[C@@H]4O)[C@@H](O)[C@H](O[C@H]4O[C@H](CO)[C@@H](O)[C@H](O)[C@@H]4O[C@H]4O[C@H](CO)[C@@H](O)[C@H](O)[C@@H]4O[C@H]4O[C@H](CO)[C@@H](O)[C@H](O)[C@@H]4O)[C@@H]3O)[C@H](O)[C@H]2NC(C)=O)[C@@H](CO)O[C@H]1NC(=O)C[C@H](N)C(=O)O [compound 212, Manα1-2Manα1-6(Manα1-3)Manα1-6(Manα1-2Manα1-2Manα1-3)Manβ1-4GlcNAcβ1-4GlcNAcβ-Sp12], the “Fluorescence (%) ^a” value was 100.0%. In the case of CC(=O)N[C@@H]1[C@@H](O)[C@H](O[C@@H]2O[C@H](CO)[C@@H](O[C@@H]3O[C@H](CO[C@H]4O[C@H](CO[C@H]5O[C@H](CO)[C@@H](O)[C@H](O)[C@@H]5O[C@H]5O[C@H](CO)[C@@H](O)[C@H](O)[C@@H]5O)[C@@H](O)[C@H](O[C@H]5O[C@H](CO)[C@@H](O)[C@H](O)[C@@H]5O[C@H]5O[C@H](CO)[C@@H](O)[C@H](O)[C@@H]5O)[C@@H]4O)[C@@H](O)[C@H](O[C@H]4O[C@H](CO)[C@@H](O)[C@H](O)[C@@H]4O[C@H]4O[C@H](CO)[C@@H](O)[C@H](O)[C@@H]4O[C@H]4O[C@H](CO)[C@@H](O)[C@H](O)[C@@H]4O)[C@@H]3O)[C@H](O)[C@H]2NC(C)=O)[C@@H](CO)O[C@H]1NC(=O)C[C@H](N)C(=O)O [compound 213, Manα1-2Manα1-6(Manα1-2Manα1-3)Manα1-6(Manα1-2Manα1-2Manα1-3)Manβ1-4GlcNAcβ1-4GlcNAcβ-Sp12], the “Fluorescence (%) ^a” value is reported as 19.8%. In the case of “Manα1-2Manα1-2Manα1-6(Manα1-3)Manα-Sp9 [compound 215]”, the “Fluorescence (%) ^a” value is reported as 78.1%. For “Manα1-2Manα1-6(Manα1-3)Manα1-6(Manα1-2Manα1-2Manα1-3)Manα-Sp9 [compound 316]”, the “Fluorescence (%) ^a” value was 48.8%. With Manα1-2Manα1-3Manα-Sp9 [compound 210] the “Fluorescence (%) ^a” value was 57.7%. For “Manα1-2Manα1-6(Manα1-2Manα1-3)Manα-Sp9 [compound 209]”, the “Fluorescence (%) ^a” value was 39.5%. With “Manα1-2Manα1-6(Manα1-2Manα1-3)Manα1-6(Manα1-2Manα1-2Manα1-3)Manα-Sp9 [compound 317]” the “Fluorescence (%) ^a” value was 34.9%.
